The source made the active and inactive calls. The calls are words filed in the database; no cut-off is given here.
Assays:
HT-29 [1] = assay: Cell cycle arrest in human HT-29 cells assessed as accumulation at sub-G1 phase at 1 uM after 24 hrs by propidium iodide staining based flow cytometric analysis (reference value: 0.9 +/- 0.1%); format: functional
[2] = Cytotoxicity against human U87 cells assessed as cell viability at 10 nmol after 24 hrs by MTT assay relative to control; format: cell-based, U-87MG ATCC; details: read-out: Activity
KB-V1/Vbl = assay: (§1) Cytotoxicity against human KB-V1/Vbl cells after 72 hrs by MTT assay; format: functional, cell-based
[3] = as §1; format: functional, cell-based
518A2 [4] = assay: Cytotoxicity against human 518A2 cells after 72 hrs by MTT assay; format: functional, cell-based; details: for IC50: 518A2, 72 h
MCF7/Topo = assay: (§2) Cytotoxicity against human MCF7/Topo cells after 72 hrs by MTT assay; format: functional, cell-based
[5] = as §2; format: functional, cell-based
HT-29 [6] = assay: Cell cycle arrest in human HT-29 cells assessed as accumulation at G1 phase at 5 uM after 24 hrs by propidium iodide staining based flow cytometric analysis (reference value: 68 +/- 0.9%); format: functional
Homo sapiens [7] = species: Homo sapiens; assay: Inhibition of NF-kappaB in human 518A2 cells assessed as reduction in p65 subunit expression at 0.5 to 1 uM after 24 hrs by Western blot analysis; format: cell-based
HT-29 [8] = assay: Cell cycle arrest in human HT-29 cells assessed as accumulation at S phase at 2.5 uM after 24 hrs by propidium iodide staining based flow cytometric analysis (reference value: 15.6 +/- 0.3%); format: functional
PANC-1 = assay: Cytotoxicity against human PANC1 cells after 72 hrs by MTT assay; format: functional, cell-based; details: for IC50: PANC-1, 72 h
HT-29 [9] = assay: Upregulation of cyclin B1 expression in human HT-29 cells at 2.5 to 5 uM after 24 hrs by Western blot analysis; format: functional, cell-based
HT-29 [10] = assay: Cell cycle arrest in human HT-29 cells assessed as accumulation at S phase at 5 uM after 24 hrs by propidium iodide staining based flow cytometric analysis (reference value: 15.6 +/- 0.3%); format: functional
HT-29 [11] = assay: Cell cycle arrest in human HT-29 cells assessed as accumulation at G1 phase at 1 uM after 24 hrs by propidium iodide staining based flow cytometric analysis (reference value: 68 +/- 0.9%); format: functional
U-87MG ATCC [12] = assay: Vascular disruptive activity in human U87 cells assessed as disruption of preformed tubular networks at 1 uM after 24 hrs by matrigel based light microscopic analysis; format: functional, cell-based
[13] = Cytotoxicity against human U87 cells assessed as effect on cell viability at 1 uM after 24 hrs by MTT assay; format: cell-based; details: u-87mg atcc
Danio rerio = species: Danio rerio; assay: Antiangiogenic activity in 72 hrs post fertilized zebra fish embryo harboring fli1a:EGFP assessed as area of subintestinal veins at 5 uM after 48 hrs by fluorescence microscopic analysis (reference value: 100%); format: functional
DLD-1 = assay: Cytotoxicity against human DLD1 cells after 72 hrs by MTT assay; format: functional, cell-based; details: for IC50: DLD-1, 72 h
HT-29 [14] = assay: Cell cycle arrest in human HT-29 cells assessed as accumulation at G2/M phase at 5 uM after 24 hrs by propidium iodide staining based flow cytometric analysis (reference value: 15.5 +/- 0.5%); format: functional
HT-29 [15] = assay: Cytotoxicity against human HT-29 cells after 72 hrs by MTT assay; format: functional, cell-based; details: for IC50: HT-29, 72 h
Gallus gallus [16] = assay: Vascular disruptive activity in 6 days post fertilized chicken egg chorioallantoic/vitelline membrane assessed as degradation of blood vessels at 10 nmol administered topically measured after 6 to 24 hrs by stereo-microscopic analysis; format: functional
HT-29 [17] = assay: Cell cycle arrest in human HT-29 cells assessed as accumulation at sub-G1 phase at 2.5 uM after 24 hrs by propidium iodide staining based flow cytometric analysis (reference value: 0.9 +/- 0.1%); format: functional
HT-29 [18] = assay: Cell cycle arrest in human HT-29 cells assessed as accumulation at G2/M phase at 2.5 uM after 24 hrs by propidium iodide staining based flow cytometric analysis (reference value: 15.5 +/- 0.5%); format: functional
HCT-116 = assay: Cytotoxicity against human HCT116 cells after 72 hrs by MTT assay; format: functional, cell-based; details: for IC50: HCT-116, 72 h
HT-29 [19] = assay: Cell cycle arrest in human HT-29 cells assessed as accumulation at G2/M phase at 1 uM after 24 hrs by propidium iodide staining based flow cytometric analysis (reference value: 15.5 +/- 0.5%); format: functional
[20] = Cytotoxicity against HDFa after 72 hrs by MTT assay; format: cell-based; details: Homo sapiens
U-87MG ATCC [21] = assay: Anti-vasculogenic activity in human U87 cells assessed as reduction in formation of cord-like structures at 1.5 uM after 24 hrs by matrigel based light microscopic analysis; format: functional, cell-based
HT-29 [22] = assay: Cell cycle arrest in human HT-29 cells assessed as accumulation at S phase at 1 uM after 24 hrs by propidium iodide staining based flow cytometric analysis (reference value: 15.6 +/- 0.3%); format: functional
HT-29 [23] = assay: Cell cycle arrest in human HT-29 cells assessed as accumulation at sub-G1 phase at 5 uM after 24 hrs by propidium iodide staining based flow cytometric analysis (reference value: 0.9 +/- 0.1%); format: functional
U-87MG ATCC [24] = assay: Anti-vasculogenic activity in human U87 cells assessed as reduction in formation of blood-vessel like tubular structures at 1.5 uM after 24 hrs by matrigel based light microscopic analysis; format: functional, cell-based
Gallus gallus [25] = assay: Vascular disruptive activity in 6 days post fertilized chicken egg assessed as area covered by blood vessels at 10 nmol administered topically measured after 6 hrs by light microscopic analysis relative to control; format: functional
HT-29 [26] = assay: Cell cycle arrest in human HT-29 cells assessed as accumulation at G1 phase at 2.5 uM after 24 hrs by propidium iodide staining based flow cytometric analysis (reference value: 68 +/- 0.9%); format: functional
U-87MG ATCC [27] = assay: (§3) Cytotoxicity against human U87 cells after 72 hrs by MTT assay; format: functional, cell-based
[28] = as §3; format: functional, cell-based, U-87MG ATCC; details: U-87 MG
U-87MG ATCC [29] = assay: Anti-vasculogenic activity in human U87 cells assessed as reduction in formation of blood-vessel like tubular structures at 2.5 uM after 24 hrs by matrigel based light microscopic analysis; format: functional, cell-based
HT-29 [30] = assay: Upregulation of cyclin B1 expression in human HT-29 cells at 1 to 2.5 uM after 24 hrs by Western blot analysis; format: functional, cell-based
U-87MG ATCC [31] = assay: Anti-vasculogenic activity in human U87 cells assessed as reduction in formation of cord-like structures at 2.5 uM after 24 hrs by matrigel based light microscopic analysis; format: functional, cell-based
518A2 [32] = assay: Anti-migratory activity in human 518A2 cells assessed as wound closure at 250 nM after 24 hrs by light microscopic analysis; format: functional, cell-based
Gallus gallus [33] = assay: Vascular disruptive activity in 6 days post fertilized chicken egg chorioallantoic/vitelline membrane assessed as disruption of capillary reticulation at 10 nmol administered topically measured after 6 hrs by stereo-microscopic analysis; format: functional
Gallus gallus [34] = assay: Toxicity in 6 days post fertilized chicken egg at 10 nmol administered topically; details: in vivo, topical_or_ocular, 144 h
518A2 [35] = assay: Anti-migratory activity in human 518A2 cells assessed as wound closure at 250 nM after 48 hrs by light microscopic analysis (reference value: 100%); format: functional
Gallus gallus [36] = assay: Vascular disruptive activity in 6 days post fertilized chicken egg chorioallantoic/vitelline membrane at 10 nmol administered topically measured after 24 hrs by stereo-microscopic analysis; format: functional
Gallus gallus [37] = assay: Vascular disruptive activity in 6 days post fertilized chicken egg chorioallantoic/vitelline membrane assessed as degradation of blood vessels at 10 nmol administered topically measured after 6 hrs by stereo-microscopic analysis; format: functional
U-87MG ATCC [38] = assay: Anti-vasculogenic activity in human U87 cells assessed as reduction in formation of small stray colonies at 2.5 uM after 24 hrs by matrigel based light microscopic analysis; format: functional, cell-based
Homo sapiens [39] = species: Homo sapiens; assay: Inhibition of NF-kappaB in human 518A2 cells assessed as reduction in p65 subunit expression at 1 to 2 uM after 24 hrs by Western blot analysis; format: cell-based
Gallus gallus [40] = assay: Vascular disruptive activity in 6 days post fertilized chicken egg chorioallantoic/vitelline membrane at 10 nmol administered topically measured up to 24 hrs by stereo-microscopic analysis; format: functional

O=C1/C(=C/c2ccccc2F)CNC/C1=C\c1ccccc1F
Activity (HT-29 [1]): 3.3%
viability at 24 h, 10 nmol [2]: > 85%
Activity (KB-V1/Vbl): Dose-dependent effect
IC50 [3]: 1100 nM
Activity (518A2 [4]): Dose-dependent effect
IC50 (518A2 [4]): 1800 nM
Activity (MCF7/Topo): Dose-dependent effect
IC50 [5]: 2200 nM
Activity (HT-29 [6]): 35.8%
inhibition (Homo sapiens [7]): Active
Activity (HT-29 [8]): 22.3%
Activity (PANC-1): Dose-dependent effect
IC50 (PANC-1): 1500 nM
Activity (HT-29 [9]): Active
Activity (HT-29 [10]): 22.6%
Activity (HT-29 [11]): 59.1%
Activity (U-87MG ATCC [12]): Active
Activity [13]: Non-Toxic
Activity (Danio rerio): 74%
Activity (DLD-1): Dose-dependent effect
IC50 (DLD-1): 1300 nM
Activity (HT-29 [14]): 34.4%
Activity (HT-29 [15]): Dose-dependent effect
IC50 (HT-29 [15]): 1600 nM
Activity (Gallus gallus [16]): Active
Activity (HT-29 [17]): 12.9%
Activity (HT-29 [18]): 25.9%
Activity (HCT-116): Dose-dependent effect
IC50 (HCT-116): 1500 nM
Activity (HT-29 [19]): 16.6%
IC50 [20]: 8.5 µM
Activity (U-87MG ATCC [21]): Active
Activity (HT-29 [22]): 21%
Activity (HT-29 [23]): 7.1%
Activity (U-87MG ATCC [24]): Active
Activity (Gallus gallus [25]): 43%
Activity (HT-29 [26]): 38.9%
Activity (U-87MG ATCC [27]): Dose-dependent effect
IC50 [28]: 1.4 µM

CN1C/C(=C\c2cc(F)c(F)cc2F)C(=O)/C(=C/c2cc(F)c(F)cc2F)C1
Activity (HT-29 [1]): 2.3%
viability at 24 h, 10 nmol [2]: > 85%
Activity (KB-V1/Vbl): Dose-dependent effect
IC50 [3]: 720 nM
Activity (U-87MG ATCC [29]): inactive
Activity (518A2 [4]): Dose-dependent effect
IC50 (518A2 [4]): 1600 nM
Activity (MCF7/Topo): Dose-dependent effect
IC50 [5]: 1600 nM
Activity (HT-29 [6]): 28.2%
inhibition (Homo sapiens [7]): Active
Activity (HT-29 [8]): 13%
Activity (PANC-1): Dose-dependent effect
IC50 (PANC-1): 1600 nM
Activity (HT-29 [30]): Active
Activity (U-87MG ATCC [31]): inactive
Activity (HT-29 [10]): 28.3%
Activity (HT-29 [11]): 61.3%
Activity (U-87MG ATCC [12]): Active
Activity [13]: Non-Toxic
Activity (Danio rerio): 39%
Activity (DLD-1): Dose-dependent effect
IC50 (DLD-1): 1800 nM
Activity (HT-29 [14]): 23.7%
Activity (HT-29 [15]): Dose-dependent effect
IC50 (HT-29 [15]): 840 nM
Activity (518A2 [32]): Active
Activity (Gallus gallus [33]): Active
Activity (HT-29 [17]): 17%
Activity (HT-29 [18]): 23.2%
Activity (HCT-116): Dose-dependent effect
IC50 (HCT-116): 1500 nM
Activity (Gallus gallus [34]): Non-Toxic
Activity (HT-29 [19]): 17.7%
Activity (518A2 [35]): Active
IC50 [20]: > 10 µM
Activity (Gallus gallus [36]): inactive
Activity (HT-29 [22]): 18.7%
Activity (HT-29 [23]): 19.7%
Activity (Gallus gallus [37]): Active
Activity (U-87MG ATCC [38]): inactive
Activity (Gallus gallus [25]): 44%
Activity (HT-29 [26]): 46.8%
Activity (U-87MG ATCC [27]): Dose-dependent effect
IC50 [28]: 3.1 µM

CN1C/C(=C\c2c(F)cc(F)cc2F)C(=O)/C(=C/c2c(F)cc(F)cc2F)C1
Activity (HT-29 [1]): 5%
viability at 24 h, 10 nmol [2]: > 85%
Activity (KB-V1/Vbl): Dose-dependent effect
IC50 [3]: 820 nM
Activity (U-87MG ATCC [29]): inactive
Activity (518A2 [4]): Dose-dependent effect
IC50 (518A2 [4]): > 10000 nM
Activity (MCF7/Topo): Dose-dependent effect
IC50 [5]: 2100 nM
Activity (HT-29 [6]): 22.2%
Activity (HT-29 [8]): 7.4%
Activity (PANC-1): Dose-dependent effect
IC50 (PANC-1): > 10000 nM
Activity (HT-29 [30]): Active
Activity (U-87MG ATCC [31]): inactive
Activity (HT-29 [10]): 8.1%
Activity (HT-29 [11]): 58.9%
Activity (DLD-1): Dose-dependent effect
IC50 (DLD-1): > 10000 nM
Activity (HT-29 [14]): 36.9%
Activity (HT-29 [15]): Dose-dependent effect
IC50 (HT-29 [15]): > 10000 nM
Activity (518A2 [32]): Active
Activity (Gallus gallus [33]): Active
Activity (HT-29 [17]): 30.1%
Activity (HT-29 [18]): 37%
Activity (HCT-116): Dose-dependent effect
IC50 (HCT-116): > 10000 nM
Activity (HT-29 [19]): 17.8%
Activity (518A2 [35]): Active
IC50 [20]: > 10 µM
inhibition (Homo sapiens [39]): Active
Activity (HT-29 [22]): 18.3%
Activity (HT-29 [23]): 32.7%
Activity (Gallus gallus [37]): Active
Activity (Gallus gallus [25]): 40%
Activity (HT-29 [26]): 25.5%
Activity (U-87MG ATCC [27]): Dose-dependent effect
IC50 [28]: > 10 µM

COc1cc(/C=C/C(=O)CC(=O)/C=C/c2ccc(O)c(OC)c2)ccc1O
Activity (Gallus gallus [40]): inactive
Activity (Gallus gallus [25]): inactive
